Publication PMC8869731, “KasQ an Epimerase Primes the Biosynthesis of Aminoglycoside Antibiotic Kasugamycin and KasF/H Acetyltransferases Inactivate Its Activity” (Biomedicines, 2022)

Legend:
[1] = target: T1, KasH (Streptomyces kasugaensis, UniProt A0A0K1H2T0); assay: ITC of KasH versus ligands;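 also: isothermal titration calorimetry at 25 °C, 0.1 mM KasH in the cell titrated with 1 mM ligand over 18 injections, data fit with a one-site binding model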
Description: (§3) ITC analyses were carried out at 25 °C using an ITC200 microcalorimeter (MicroCal Inc., Northampton, MA, USA). […] The titration experiment contains 18 injections (2 μL for a duration of 4 s) and each injection was separated by 120 s. The distilled water was filled in the reference cell throughout all titrations. The cell stirring speed was 1000 rpm. The collected raw data were processed in Origin 7.0 (provided by MicroCal) by a non-linear least square method to a single-site binding model.

[2] = tested on: E. coli BL21 (DE3) cells with/without the kasH or kasF gene; assay: Disc diffusion assay (resistance assay); type: cell-based; details: disc ~5 μL of 7.6 mg/mL KSM
Description: KSM susceptibility and production were confirmed by disc diffusion assay. An E. coli culture was grown at 37 °C overnight and spread on an LB agar plate (pH 7.0). About 5 µL of extracted samples from Streptomyces lividans TK64 (from days 2–5) were loaded onto the paper disc. The disc was placed onto the surface of an LB agar plate and incubated at 37 °C overnight to visualize the zone of inhibition (ZOI).
For the KSM resistant assay, BL21 cells with/without the kasH or kasF gene were individually expressed and seeded on LB agar plates (pH 7.0). About 5 µL of different aminoglycoside antibiotics (amikacin, gentamicin, sisomicin, streptothricin-F, or tobramycin) were loaded onto each paper disc and placed on the surface of the LB plates. The plates were incubated 37 °C overnight to visualize the appearance of the zone of inhibition (ZOI). Note: this is a standard protocol for evaluating the effectiveness of common antibiotics, including aminoglycosides; there is no apparent impact concerning the structural integrity or biological deterioration of the selected aminoglycosides at pH 7.0 during the examining course.

[3] = tested on: KasF; assay: HPLC acetylation assay with KasF and AcCoA; type: biochemical, Streptomyces kasugaensis; details: 1 mM substrate, 0.5 mM AcCoA, 37 °C, 12 h
[4] = target: T1, KasH; assay: HPLC acetylation assay with KasH and AcCoA; type: biochemical; details: 1 mM substrate, 0.5 mM AcCoA, 37 °C, 12 h
[5] = target: T2, KasQ (Streptomyces kasugaensis, UniProt A0A0K1H2R6); assay: HPLC kinetic analysis of KasQ epimerization; type: biochemical; details: KasQ_WT with UDP-GlcNAc and 1 mM MgCl2, 25 mM Tris pH 8.0, 37 °C
Description: The reaction mixture was mixed by vortex and incubated at 37 °C. Reactions were stopped at six different time points (10, 30, 60, 120, 180, and 240 min) by adding equal volumes of chloroform. Precipitation was removed by centrifugation and analyzed by HPLC-LTQ-MS using HPLC method B as described above. […] The Michaelis–Menten curve of the KasQ activity was derived from the integrated peak area of each reaction.

[6] = target: KasQ E308Q (Streptomyces kasugaensis, UniProt A0A0K1H2R6, E308Q); type: binding; details: ITC; KasQ mutant E308Q
Description: (§1) Site-directed mutagenesis was performed using QuikChange (Stratagene), following the manufacturer’s protocol. The wild-type KasQ plasmid (BCRC12349) was used as the template for the single mutation. All mutations were confirmed by DNA sequencing. KasQ mutants were expressed and purified with the same protocol as used for the wild-type protein.
(§2) The cell stirring speed was 1000 rpm.

[7] = target: KasQ Q95E (Streptomyces kasugaensis, UniProt A0A0K1H2R6, Q95E); assay: biochemical; type: binding
Description: as §1, §2

[8] = target: KasQ E308A (Streptomyces kasugaensis, UniProt A0A0K1H2R6, E308A); assay: biochemical; type: binding; details: ITC; KasQ mutant E308A
Description: as §1, §2

[9] = target: KasQ Q95A (Streptomyces kasugaensis, UniProt A0A0K1H2R6, Q95A); assay: biochemical; type: binding
Description: as §1, §2

[10] = target: T2, KasQ; assay: Isothermal titration calorimetry (ITC) of KasQ wild type versus substrates; type: binding; details: ITC, KasQ wild type;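 also: titration of 1 mM substrate into 0.1 mM KasQ, 18 injections spaced 120 s, data fitted to a single-site binding model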
Description: as §3

[11] = target: KasQ (Streptomyces kasugaensis); assay: not stated; oligomeric state of the purified protein in solution (Figure S3: protein overexpression and purification); the method is not named in the text shown
[12] = target: the molecule itself; assay: as above

Sequence of KasQ E308Q (A0A0K1H2R6 entry or part of it E308Q): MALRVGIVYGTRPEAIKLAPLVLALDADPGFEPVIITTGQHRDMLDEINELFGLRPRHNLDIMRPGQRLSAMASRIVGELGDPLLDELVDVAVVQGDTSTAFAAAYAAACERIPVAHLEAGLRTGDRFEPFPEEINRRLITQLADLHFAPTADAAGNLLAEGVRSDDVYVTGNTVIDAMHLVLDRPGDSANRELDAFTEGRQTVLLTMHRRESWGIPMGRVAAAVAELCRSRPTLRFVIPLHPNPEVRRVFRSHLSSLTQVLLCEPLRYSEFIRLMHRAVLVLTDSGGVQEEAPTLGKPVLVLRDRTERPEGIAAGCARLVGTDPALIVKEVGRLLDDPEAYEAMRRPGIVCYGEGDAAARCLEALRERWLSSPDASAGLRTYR
Sequence of KasQ E308A (A0A0K1H2R6 entry or part of it E308A): as the sequence (A0A0K1H2R6 entry or part of it E308Q) above
T2 sequence (A0A0K1H2R6 entry or part of it): as the sequence (A0A0K1H2R6 entry or part of it E308Q) above
Sequence of KasQ Q95A (A0A0K1H2R6 entry or part of it Q95A): as the sequence (A0A0K1H2R6 entry or part of it E308Q) above, with Q95A counted along it
Sequence of KasQ Q95E (A0A0K1H2R6 entry or part of it Q95E): as the sequence (A0A0K1H2R6 entry or part of it E308Q) above, with Q95E counted along it

Molecule: C[C@H]1O[C@H](O[C@H]2[C@H](O)[C@@H](O)[C@@H](O)[C@H](O)[C@@H]2O)[C@@H](N)C[C@@H]1NC(=N)C(=O)O [KSM, Kasugamycin]
- n ([1]; ITC binding stoichiometry, KasH, 50 mM MOPS pH 7.5, 100 mM NaCl): 1.0 ± 0.1
- ∆G ([1]; ITC, KasH): -5.804 ± 0.4705 kcal/mol
- ∆H ([1]; ITC, KasH): -2.316 ± 0.4705 kcal/mol
- ∆S ([1]; ITC, KasH): 11.7 cal mol-1 K-1
- Kd ([1]; ITC, KasH, 50 mM MOPS pH 7.5, 100 mM NaCl): 56.1 µM
- binding affinity versus KasH relative to AcCoA ([1]; ITC, higher than AcCoA): 2.9 fold
- binding affinity versus KasH relative to CoA ([1]; ITC, higher than CoA): 1.7 fold
- growth of E. coli in the presence of KSM ([2]; E. coli BL21 (DE3) carrying the kasF gene): moderate growth
- growth of E. coli in the presence of KSM ([2]; E. coli BL21 (DE3) carrying the kasH gene): not affected
- zone of inhibition (ZOI) ([2]; E. coli BL21 (DE3) with empty pET28a+ (no acetyltransferase gene)): clear zone of inhibition
- acetylation by KasF [3]: partially acetylated
- acetylation by KasH [4]: completely acetylated

Molecule: CC(=O)NC1C(OP(=O)(O)OP(=O)(O)OCC2OC(n3ccc(=O)[nH]c3=O)C(O)C2O)OC(CO)C(O)C1O (centres unmarked) [UDP-GlcNAc 1, UDP-N-acetyl-glucosamine]
- kcat ([5]; listed as UDP-GlcNAC): 1.33 (± 0.24) s^−1
- kcat ([5]; listed as UDP-GlcNAc): 1.33 s⁻¹
- Kd [6]: NBD
- ∆G [6]: NBD
- ∆H [6]: NBD
- ∆S [6]: NBD
- Kd [7]: 14.2 µM
- n ([7]; ITC binding stoichiometry, KasQ mutant Q95E): 0.7 ± 0.0
- ∆G ([7]; ITC, KasQ mutant Q95E): -6.607 ± 0.0679 kcal/mol
- ∆H ([7]; ITC, KasQ mutant Q95E): -0.6141 ± 0.0679 kcal/mol
- ∆S ([7]; ITC, KasQ mutant Q95E): 20.1 cal mol-1 K-1
- Kd [8]: NBD
- ∆G [8]: NBD
- ∆H [8]: NBD
- ∆S [8]: NBD
- Kd [9]: 45.2 µM
- n ([9]; ITC binding stoichiometry, KasQ mutant Q95A): 1.6 ± 0.1
- ∆G ([9]; ITC, KasQ mutant Q95A): -5.939 ± 0.1764 kcal/mol
- ∆H ([9]; ITC, KasQ mutant Q95A): -0.7212 ± 0.1764 kcal/mol
- ∆S ([9]; ITC, KasQ mutant Q95A): 17.5 cal mol-1 K-1
- ∆G [10]: NBD
- ∆H [10]: NBD
- ∆S [10]: NBD
- Kd ([10]; 25 °C, 50 mM HEPES pH 8.0, 100 mM NaCl): NBD

Molecule: KasQ (enzyme)
- stoichiometry N [11]: 2

B1: KasH (enzyme, Streptomyces kasugaensis, UniProt A0A0K1H2T0 1-130, looked up)
chain: MTITYEWRGGFDNAALNALHADGFGPPIAQTDWRTRLERHSLGWVCAWEDGLIGFVNVVWDGGAHAFILDTVVARHCRSRGVGAALVAKAADEARAANCEWLHVDFEEHLRAFYFDACGFKETTAGLIAL
notes: KasH, acetyltransferase of the kasugamycin biosynthetic gene cluster, Streptomyces kasugaensis; gene amplified and cloned into pET28a+; also called acetyltransferase KasH; source: E. coli BL21, purified (Ni-agarose, gel filtration)
- stoichiometry N [12]: 2
